Tests used:
[1] = system: KCC2 pThr906; experiment: Phosphorylation immunoblot in KCC2-transfected HEK293 cells; format: cell-based, human; conditions: concentration inhibiting phosphorylation
Protocol: HEK293 (human embryonic kidney 293) cells were cultured on 10-cm-diameter dishes in DMEM supplemented with 10% (v/v) foetal bovine serum, 2 mM L-glutamine, 100 U/ml penicillin and 0.1 mg/ml streptomycin. HEK293 cells were transfected with a mixture of 20 μl of 1 mg/ml polyethylenimine (Polysciences) and 5-10 μg of plasmid DNA as described previously (Durocher et al., 2002). 36 hours post-transfection cells were stimulated with either control isotonic or hypotonic medium for a period of 30 minutes. Cells were lysed in 0.3 mL of ice-cold lysis buffer/dish, lysates were clarified by centrifugation at 4° C. for 15 minutes at 26,000 g and the supernatant aliquots were frozen in liquid nitrogen and stored at −20° C. Protein concentrations were determined using the Bradford method. Cells were treated with the indicated concentrations of the SPAK/OSR1 inhibitors. […] Hypotonic low chloride buffer was 67.5 mM sodium-gluconate, 2.5 mM potassium-gluconate, 0.25 mM CaCl2), 0.25 mM MgCl2, 0.5 mM Na2HPO4, 0.5 mM Na2SO4 and 7.5 mM HEPES (pH 7.5).
(§1) The membranes were incubated for 30 min with TBST (Tris-buffered saline, 0.05% Tween-20) containing 5% (w/v) skim milk. The blots were then washed six times with TBST and incubated for 1 hour at room temperature with secondary HRP-conjugated antibodies diluted 5000-fold in 5% (w/v) skim milk in TBST. After repeating the washing steps, signals were detected with enhanced chemiluminescence reagent. Immunoblots were developed using a film automatic processor (SRX-101; Konica Minolta Medical) and films were scanned at 600 dpi (PowerLook 1000; UMAX). Figures were generated using Photoshop/Illustrator (Adobe). The densities of bands were measured with ImageJ. For phospho-antibody immunoprecipitation, KCC isoforms were immunoprecipitated from indicated cell extracts. 2 mg of the indicated clarified cell extract were mixed with 15 μg of the indicated phospho-specific KCC antibody conjugated to 15 μl of protein-G-Sepharose, in the added presence of […] of the dephosphorylated form of the phosphopeptide antigen, and incubated 2 hours at 4° C. with gentle shaking. Immunoprecipitates were washed three times with 1 mL of lysis buffer containing 0.15 M NaCl and twice with 1 ml of buffer A. Bound proteins were eluted with 1×LDS sample buffer.
HEK293 cells were transfected with a DNA construct encoding wild type N-terminally FLAG-tagged KCC2. 36 hrs post-transfection, cells were exposed 30 min to either control isotonic or hypotonic low [C1^−] conditions, then treated in the same conditions for an additional 30 min with the indicated inhibitors at the concentrations noted. Cell lysates were subjected to SDS-PAGE and Western blotting with the indicated antibodies. See FIG. 3 for Western blot quantitation.
Referring to FIG. 2, concentration-response experiments testing effects of Closantel analogs on phosphorylation of KCC2 Thr906/Thr1007 are shown. HEK293 cells were transfected with DNA construct encoding wild type N-terminally FLAG-tagged KCC2. 36 h post-transfection, cells were exposed 30 min to either control isotonic conditions or hypotonic low Cl^− conditions, then treated in the same conditions with the specified inhibitors (1b, 1c, 1f, 1d, 1h, and 1g, respectively) at the indicated concentrations for an additional 30 min. Lysates were subjected to SDS-PAGE and Western blotting with the indicated antibodies.
Referring to FIG. 3, HEK293 cells were transfected with the DNA construct encoding wild type N-terminally FLAG-tagged KCC2. 36 h post-transfection, cells were exposed 30 min to either control isotonic or hypotonic low Cl^− conditions, then treated in the same conditions with the specified inhibitors at the indicated concen-trations for an additional 30 min. Lysates were subjected to SDS-PAGE and Western blotting with the indicated antibodies. Closantel, STOCK1S-14279 and STOCK1S-50699 were used as reference compounds.

[2] = system: pKCC3; experiment: Phosphorylation in ischemic mouse brains, immunoblot; format: in vivo
Protocol: as §1
(§2) Brain homogenates were prepared as previously described (Bhuiyan et al. (2017) Journal of cerebral blood flow and metabolism: official journal of the International Society of Cerebral Blood Flow and Metabolism 37: 2780-2794). Mice were anesthetized with 5% isoflurane vaporized in N20 and 02 (3:2), then decapitated. […] The pellet was re-suspended in the homogenization buffer. Protein content in both membrane and cytosolic fractions was determined by the standard bicinchoninic acid method.
(§3) Referring to FIG. 14A, representative immunoblots (IB) of phospho-SPAK/OSR1 (pSPAK/pOSR1), phospho-KCC3 and phospho-NKCC1 (pNKCC1) in mouse brains studied 24 hrs post-reperfusion after ischemic stroke are shown. Membrane protein fractions were prepared from contralateral (CL) and ipsilateral (IL) cerebral hemispheres. Vehicle (Veh, DMSO) or ZT-1a (5 mg/kg) was administered as described in FIG. 11A, FIG. 11B, and FIG. 13. Na^+-K^+ ATPase α-subunit and GAPDH served, respectively, as loading controls for membrane and cytosol fractions.
(§4) Referring to FIG. 14B, densitometry analyses of immunoblots (similar to those in panel A) of pSPAK/pOSR1, pNKCC1, tSPAK/tOSR1, and tNKCC1 in mouse brains studied 24 hrs reperfusion after tMCAO are shown. Data are means±SEM, n=5 per group (male 3, female 2). *p<0.05.

[3] = system: pSPAK/pOSR1 and pNKCC1; experiment: as above; format: in vivo
Protocol: as §1, §2, §3, §4

[4] = compared to vehicle-control mice
[5] = ipsilateral cortex membrane fractions, 24 hrs reperfusion, 5 mg/kg

## Cc1cc(C(C#N)c2ccc(Cl)cc2)c(Cl)cc1NC(=O)c1cc(Cl)ccc1O (stereo not drawn) [ZT-1a, 5-chloro-N-(5-chloro-4-((4-chlorophenyl)(cyano)methyl)-2-methylphenyl)-2-hydroxy-benzamide]
[1]; hypotonic low Cl- conditions
  KCC2 pThr906 (μM) hypo: 3, 3 μM
[1]; isotonic conditions
  KCC2 pThr906 (μM) Iso: 3, 3 μM
[2]; [4]
  reduction of ischemia-induced elevations of pKCC3: 30%
[2]; [5]
  effect on ischemia-induced increases of pKCC3: prevented ischemia-induced increases
[3]; [4]
  reduction of ischemia-induced elevations of pSPAK and pNKCC1: 55-65%
[3]; [5]
  effect on ischemia-induced increases of pSPAK/pOSR1 and pNKCC1: prevented ischemia-induced increases

Source: US11414379B2, “SPAK kinase inhibitors as neuroprotective agents” (United States Government as represented by the Department …, priority 2018, dated 2022)
